Results taken from US12486253B2, “Therapeutics for the degradation of mutant BRAF” (C4 THERAPEUTICS, INC., priority 2021, dated 2025).
Where a name gives a salt, the structure may show the parent alone. Read-outs that look alike come from different tables or passages of the source.

Biological target: BRAF V600E (Homo sapiens, UniProt P15056, V600E)
Assay: HiBiT cellular BRAF^V600E degradation assay
Type: cell-based
Settings: for DC50: concentration at which 50% of total cellular BRAF^V600E is degraded; for Emax: read-out: HiBit 24 h Emax
[1] = A375.10 cells, 24 h, residual protein remaining in the cell

Sequence of BRAF V600E (P15056 whole entry V600E): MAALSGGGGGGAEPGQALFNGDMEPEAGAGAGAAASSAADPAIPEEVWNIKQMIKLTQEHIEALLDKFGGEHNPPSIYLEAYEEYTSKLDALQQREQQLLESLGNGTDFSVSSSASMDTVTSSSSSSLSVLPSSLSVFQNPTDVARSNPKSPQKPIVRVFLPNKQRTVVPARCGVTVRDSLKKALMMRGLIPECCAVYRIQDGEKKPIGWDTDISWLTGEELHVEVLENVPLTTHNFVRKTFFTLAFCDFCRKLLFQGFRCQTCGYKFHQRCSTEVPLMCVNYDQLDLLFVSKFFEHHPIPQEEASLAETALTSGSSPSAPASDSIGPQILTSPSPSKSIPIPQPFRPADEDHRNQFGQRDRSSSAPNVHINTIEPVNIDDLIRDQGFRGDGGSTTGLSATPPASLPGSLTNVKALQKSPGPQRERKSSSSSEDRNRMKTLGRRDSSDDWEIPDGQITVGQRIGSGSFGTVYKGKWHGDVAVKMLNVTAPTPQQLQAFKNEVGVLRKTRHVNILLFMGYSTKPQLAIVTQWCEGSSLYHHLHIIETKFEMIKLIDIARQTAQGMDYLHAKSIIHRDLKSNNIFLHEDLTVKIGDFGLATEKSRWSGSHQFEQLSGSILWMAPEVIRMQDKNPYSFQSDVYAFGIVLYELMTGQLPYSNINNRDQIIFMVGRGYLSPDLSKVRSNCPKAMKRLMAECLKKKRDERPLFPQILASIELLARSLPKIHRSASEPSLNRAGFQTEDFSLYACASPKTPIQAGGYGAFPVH

| SMILES | DC50 (A375.10 cells, 24 h) [nM] | Emax [1] [%] | HiBit 24 h Emax [1] [%] | Emax [%] |
| --- | --- | --- | --- | --- |
| CCN(C)S(=O)(=O)Nc1ccc(F)c(Oc2ccc3ncn(-c4cnc(N5CCN(C(=O)CN6CCC(c7ccc(N[C@H]8CCC(=O)NC8=O)cc7F)CC6)CC5)nc4)c(=O)c3c2)c1F [Example 140, 3-[2-[4-[2-[4-[4-[[(3S)-2,6-dioxopiperidin-3-yl]amino]-2-fluorophenyl]piperidin-1-yl]acetyl]piperazin-1-yl]pyrimidin-5-yl]-6-[3-[[ethyl(methyl)sulfamoyl]amino]-2,6-difluorophenoxy]-4-oxoquinazoline] | 27.8 | 12.3 | – | – |
| CCN(C)S(=O)(=O)Nc1ccc(F)c(Oc2ccc3ncn(-c4cnn(C5CCN(C(=O)CN6CCC(c7ccc(NC8CCC(=O)NC8=O)cc7)CC6)CC5)c4)c(=O)c3c2)c1C#N (centres unmarked) [Example 18, 6-[2-cyano-3-[[ethyl(methyl)sulfamoyl]amino]-6-fluorophenoxy]-3-[1-[1-[2-[4-[4-[(2,6-dioxopiperidin-3-yl)amino]phenyl]piperidin-1-yl]acetyl]piperidin-4-yl]pyrazol-4-yl]-4-oxoquinazoline] | 30.7 | 18.5 | – | – |
| CCN(C)S(=O)(=O)Nc1ccc(F)c(Oc2ccc3ncn([C@H]4COC5(CCN(C(=O)CN6CCN(c7cc8c(cc7F)c(N7CCC(=O)NC7=O)nn8C)CC6)CC5)C4)c(=O)c3c2)c1C#N [Example 164, (3R)-3-[6-[2-cyano-3-[[ethyl(methyl)sulfamoyl]amino]-6-fluorophenoxy]-4-oxoquinazolin-3-yl]-8-[2-[4-[3-(2,4-dioxo-1,3-diazinan-1-yl)-5-fluoro-1-methylindazol-6-yl]piperazin-1-yl]acetyl]-1-oxa-8-azaspiro[4.5]decane] | 26.6 | 15.6 | – | – |
| CCN(C)S(=O)(=O)Nc1ccc(F)c(Oc2ccc3ncn(-c4cnc(N5CCN(C(=O)CN6CCC(c7cc(OC)c(NC8CCC(=O)NC8=O)cc7F)CC6)CC5)nc4)c(=O)c3c2)c1C#N (centres unmarked) [Example 88, 6-[2-cyano-3-[[ethyl(methyl)sulfamoyl]amino]-6-fluorophenoxy]-3-[2-[4-[2-[4-[4-[(2,6-dioxopiperidin-3-yl)amino]-2-fluoro-5-methoxyphenyl]piperidin-1-yl]acetyl]piperazin-1-yl]pyrimidin-5-yl]-4-oxoquinazoline] | 15.1 | – | – | 9.01 |
| CN(CCF)S(=O)(=O)Nc1ccc(F)c(Oc2ccc3ncn(-c4cnc(N5CCN(C(=O)CN6CCC(c7ccc(N[C@@H]8CCC(=O)NC8=O)cc7F)CC6)CC5)nc4)c(=O)c3c2)c1C#N [Example 120, 6-[2-cyano-6-fluoro-3-[[2-fluoroethyl(methyl)sulfamoyl]amino]phenoxy]-3-[2-[4-[2-[4-[4-[[(3R)-2,6-dioxopiperidin-3-yl]amino]-2-fluorophenyl]piperidin-1-yl]acetyl]piperazin-1-yl]pyrimidin-5-yl]-4-oxoquinazoline] | 13.8 | 11.6 | – | – |
| CCN(C)S(=O)(=O)Nc1ccc(F)c(Oc2ccc3ncn(CCC4CCN(C(=O)CN5CCC(c6ccc(NC7CCC(=O)NC7=O)c(F)c6)CC5)CC4)c(=O)c3c2)c1C#N (centres unmarked) [Example 3, 6-[2-cyano-3-[[ethyl(methyl)sulfamoyl]amino]-6-fluorophenoxy]-3-[2-[1-[2-[4-[4-[(2,6-dioxopiperidin-3-yl)amino]-3-fluorophenyl]piperidin-1-yl]acetyl]piperidin-4-yl]ethyl]-4-oxoquinazoline] | 35.9 | – | – | 14.7 |
| CCN(C)S(=O)(=O)Nc1ccc(F)c(Oc2ccc3ncn(CCN4CCN(C(=O)CN5CCC(c6ccc(NC7CCC(=O)NC7=O)cc6)CC5)CC4)c(=O)c3c2)c1C#N (centres unmarked) [Example 9, 6-[2-cyano-3-[[ethyl(methyl)sulfamoyl]amino]-6-fluorophenoxy]-3-[2-[4-[2-[4-[4-[(2,6-dioxopiperidin-3-yl)amino]phenyl]piperidin-1-yl]acetyl]piperazin-1-yl]ethyl]-4-oxoquinazoline] | 41.9 | 9.87 | – | – |
| CCN(C)S(=O)(=O)Nc1ccc(F)c(Oc2ccc3ncn([C@@H]4CCC5(CCN(C(=O)CN6CCC(c7ccc(NC8CCC(=O)NC8=O)cc7F)CC6)CC5)C4)c(=O)c3c2Cl)c1C#N (single isomer, unassigned) [Example 80] | 30.5 | 13.8 | – | – |
| CCN(C)S(=O)(=O)Nc1ccc(F)c(Oc2ccc3ncn([C@H]4COC5(CCN(C(=O)CC6CCN(c7ccc8c(C9CCC(=O)NC9=O)nn(C)c8c7)CC6)CC5)C4)c(=O)c3c2)c1C#N (stereo partly drawn) [Example 151, (3R)-3-[6-[2-cyano-3-[[ethyl(methyl)sulfamoyl]amino]-6-fluorophenoxy]-4-oxoquinazolin-3-yl]-8-[2-[1-[3-(2,6-dioxopiperidin-3-yl)-1-methylindazol-6-yl]piperidin-4-yl]acetyl]-1-oxa-8-azaspiro[4.5]decane] | 18.7 | 24.6 | – | – |
| CCN(C)S(=O)(=O)Nc1ccc(F)c(Oc2ccc3ncn([C@H]4COC5(CCN(C6CCC(c7ccc(NC8CCC(=O)NC8=O)cc7F)CC6)CC5)C4)c(=O)c3c2)c1C#N (single isomer, unassigned) [Example 83] | 16.3 | – | 27.77 | – |
| N#Cc1c(NS(=O)(=O)C2CCCC2)ccc(F)c1Oc1ccc2ncn(-c3cnc(N4CCN(C(=O)CN5CCC(c6ccc(N[C@H]7CCC(=O)NC7=O)cc6F)CC5)CC4)nc3)c(=O)c2c1 [Example 109, N-[2-cyano-3-[3-[2-[4-[2-[4-[4-[[(3S)-2,6-dioxopiperidin-3-yl]amino]-2-fluorophenyl]piperidin-1-yl]acetyl]piperazin-1-yl]pyrimidin-5-yl]-4-oxoquinazolin-6-yl]oxy-4-fluorophenyl]cyclopentanesulfonamide] | 12.5 | 9.04 | – | – |

Continued by falling DC50 (A375.10 cells, 24 h), values first:

| DC50 (A375.10 cells, 24 h) [nM] | Emax [1] [%] | HiBit 24 h Emax [1] [%] | SMILES | Emax [%] |
| --- | --- | --- | --- | --- |
| 165 | 26 | – | CCN(C)S(=O)(=O)Nc1ccc(F)c(Oc2ccc3ncn(CCC4CCN(CC(=O)N5CCC(c6ccc(NC7CCC(=O)NC7=O)cc6)CC5)CC4)c(=O)c3c2)c1C#N (centres unmarked) [Example A2, 6-[2-cyano-3-[[ethyl(methyl)sulfamoyl]amino]-6-fluoro-phenoxy]-3-[2-[1-[2-[4-[4-[(2,6-dioxo-3-piperidyl)amino]phenyl]-1-piperidyl]-2-oxo-ethyl]-4-piperidyl]ethyl]-4-oxo-quinazoline, 2,2,2-trifluoroacetic acid salt] | – |
| 49.7 | 9.7 | – | CCN(C)S(=O)(=O)Nc1ccc(F)c(Oc2ccc3ncn([C@@H]4COC5(CCN(C(=O)CN6CCC(c7ccc(NC8CCC(=O)NC8=O)cc7F)CC6)CC5)C4)c(=O)c3c2Cl)c1C#N (single isomer, unassigned) [Example 78] | – |
| 44 | 20.7 | – | CCN(C)S(=O)(=O)Nc1ccc(F)c(Oc2ccc3ncn(-c4cnn(C5CCN(C(=O)CN6CCC(c7ccc(C8CCC(=O)NC8=O)cc7F)CC6)CC5)c4)c(=O)c3c2)c1C#N (centres unmarked) [Example 17, 6-[2-cyano-3-[[ethyl(methyl)sulfamoyl]amino]-6-fluorophenoxy]-3-[1-[1-[2-[4-[4-(2,6-dioxopiperidin-3-yl)-2-fluorophenyl]piperidin-1-yl]acetyl]piperidin-4-yl]pyrazol-4-yl]-4-oxoquinazoline] | – |
| 34.8 | 11.9 | – | CCN(C)S(=O)(=O)Nc1ccc(F)c(Oc2ccc3ncn(C4C5CN(C(=O)CN6CCC(c7ccc(NC8CCC(=O)NC8=O)cc7F)CC6)CC54)c(=O)c3c2)c1C#N (centres unmarked) [Example 25, 6-[2-cyano-3-[[ethyl(methyl)sulfamoyl]amino]-6-fluorophenoxy]-3-[3-[2-[4-[4-[(2,6-dioxopiperidin-3-yl)amino]-2-fluorophenyl]piperidin-1-yl]acetyl]-3-azabicyclo[3.1.0]hexan-6-yl]-4-oxoquinazoline] | – |
| 34.3 | 19.6 | – | CCN(C)S(=O)(=O)Nc1ccc(F)c(Oc2ccc3ncn(-c4cnn(C5CCN(CC(=O)N6CCC(c7ccc(NC8CCC(=O)NC8=O)cc7)CC6)CC5)c4)c(=O)c3c2)c1C#N (centres unmarked) [Example 21, 6-[2-cyano-3-[[ethyl(methyl)sulfamoyl]amino]-6-fluorophenoxy]-3-[1-[1-[2-[4-[4-[(2,6-dioxopiperidin-3-yl)amino]phenyl]piperidin-1-yl]-2-oxoethyl]piperidin-4-yl]pyrazol-4-yl]-4-oxoquinazoline] | – |
| 22.2 | 13.7 | – | CN(C1CC1)S(=O)(=O)Nc1ccc(F)c(Oc2ccc3ncn(-c4cnc(N5CCN(C(=O)CN6CCC(c7ccc(N[C@@H]8CCC(=O)NC8=O)cc7F)CC6)CC5)nc4)c(=O)c3c2)c1C#N [Example 126, 6-[2-cyano-3-[[cyclopropyl(methyl)sulfamoyl]amino]-6-fluorophenoxy]-3-[2-[4-[2-[4-[4-[[(3R)-2,6-dioxopiperidin-3-yl]amino]-2-fluorophenyl]piperidin-1-yl]acetyl]piperazin-1-yl]pyrimidin-5-yl]-4-oxoquinazoline] | – |
| 18.6 | 7.82 | – | CCN(C)S(=O)(=O)Nc1ccc(F)c(Oc2ccc3ncc(-n4cc(N5CCCN(C(=O)CN6CCC(c7ccc(NC8CCC(=O)NC8=O)cc7F)CC6)CC5)cn4)nc3c2)c1C#N (centres unmarked) [Example 215, 7-[2-cyano-3-[[ethyl(methyl)sulfamoyl]amino]-6-fluorophenoxy]-2-[4-[4-[2-[4-[4-[(2,6-dioxopiperidin-3-yl)amino]-2-fluorophenyl]piperidin-1-yl]acetyl]-1,4-diazepan-1-yl]pyrazol-1-yl]quinoxaline] | – |
| 11.1 | 7.29 | – | CCN(C)S(=O)(=O)Nc1ccc(F)c(Oc2ccc3ncn(CCCC4(F)CCN(C(=O)CN5CCC(c6ccc(NC7CCC(=O)NC7=O)cc6F)CC5)CC4)c(=O)c3c2)c1C#N (centres unmarked) [Example 15, 6-[2-cyano-3-[[ethyl(methyl)sulfamoyl]amino]-6-fluorophenoxy]-3-[3-[1-[2-[4-[4-[(2,6-dioxopiperidin-3-yl)amino]-2-fluorophenyl]piperidin-1-yl]acetyl]-4-fluoropiperidin-4-yl]propyl]-4-oxoquinazoline] | – |
